Results published in patent US9908843B2, “Benzamide derivatives useful in the treatment of muscular disorders and pain and for controlling spasticity and tremors” (Canbex Therapeutics Limited, priority 2013, dated 2018).
Like-named read-outs stand apart in the source and are kept apart here.

Tests used:
mouse vas deferens = test: Inhibition of electrically-evoked contractions of the mouse isolated vas deferens; type: cell-based; conditions: for potency (EC50) greater than VSN-16R: vas deferens mouse assay, relative to VSN-16R
Experimental: Compounds were evaluated using a mouse vas deferens preparation [Ward S, Mastriani D, Casiano F and Arnold R (1990) J Pharmacol Exp Ther 255:1230-1239]. The mouse vas deferens isolated tissue preparation is used as an in vitro bioassay to assess the actions of compounds on neurotransmission. Electrically-evoked contractions are induced in the preparation and compounds which affect neurotransmission will inhibit these contractions in a concentration related manner. […] CB1 agonists inhibit electrically-evoked contractions.
Vasa deferentia were obtained from albino MF1 mice weighing 31-59 g. The tissues were mounted vertically in 4 ml organ baths. They were then subjected to electrical stimulation of progressively greater intensity, followed by an equilibration procedure in which they were exposed to alternate periods of stimulation (2 min) and rest (10 min) until contractions with consistent amplitudes were obtained. These contractions were monophasic and isometric, and were evoked by 0.5 s trains of pulses of 110% maximal voltage (train frequency 0.1 Hz; pulse frequency 5 Hz; pulse duration 0.5 ms).
All drug additions were made to the organ baths after the equilibration period and there was no washout between these additions. Potential antagonist or its vehicle were added to the preparation. This was followed 28 min later by a 2-min period of electrical stimulation, at the end of which the lowest of a series of concentrations of the twitch inhibitors was applied. After a period of rest, the tissues were electrically stimulated for 2 min and then subjected to a further addition of twitch inhibitor. This cycle of drug addition, rest and 2 min stimulation was repeated so as to construct cumulative concentration—response curves. Only one concentration—response curve was constructed per tissue.
Values for EC50, maximal effect (Emax) and the s.e.m. or 95% confidence limits of these values have been calculated by nonlinear regression analysis using the equation for a sigmoid concentration—response curve (GraphPad Prism).

[1] = tested on: mouse vas deferens (CB1 knock-out); test: VSN-16R dose response curve in mouse vas deferens, CB1 knock-out; type: cell-based
[2] = tested on: mouse vas deferens (CB2 knock-out); test: VSN-16R dose response curve in mouse vas deferens, CB2 knock-out; type: cell-based
spasticity in CREAE mice = conditions: cited from earlier work
[3] = Mus musculus, Table 2, read-out: EC50
[4] = Mus musculus, Table 2, read-out: Emax (%)

SMILES | EC50 (mouse vas deferens; [3]) | Emax (mouse vas deferens; [4]) | other results
CN(C)C(=O)CCC/C=C\c1cccc(C(=O)NCC(=O)O)c1 [[15], (Z)-2-(3-(6-(dimethylamino)-6-oxohex-1-en-1-yl)benzamido)acetic acid] | 0.102 nM | 53.7% | 
COC(=O)[C@@H](C)NC(=O)c1cccc(/C=C\CCCC(=O)N2CCCC2)c1 [[21], (R,Z)-methyl 2-(3-(6-oxo-6-(pyrrolidin-1-yl)hex-1-en-1-yl)benzamido)propanoate] | 0.162 nM | 58.3% | 
CN(C)C(=O)CCC/C=C\c1cccc(C(=O)N[C@@H](CO)C(=O)O)c1 [[18], (S,Z)-2-(3-(6-(dimethylamino)-6-oxohex-1-en-1-yl)benzamido)-3-hydroxypropanoic acid] | 0.382 nM | 62.7% | 
CN(C)C(=O)CCC/C=C\c1cccc(C(=O)N[C@H](Cc2ccccc2)C(=O)O)c1 [[16], (R,Z)-2-(3-(6-(dimethylamino)-6-oxohex-1-en-1-yl)benzamido)-3-phenylpropanoic acid] | 0.00604 nM | 73.9% | 
COC(=O)[C@@H](CO)NC(=O)c1cccc(/C=C\CCCC(=O)N(C)C)c1 [[29], (R,Z)-methyl 2-(3-(6-(dimethylamino)-6-oxohex-1-en-1-yl)benzamido)-3-hydroxypropanoate] | 0.0456 nM | 62% | 
CN(C)C(=O)CCC/C=C\c1cccc(C(=O)N[C@H](CO)C(=O)O)c1 [[14], (R,Z)-2-(3-(6-(dimethylamino)-6-oxohex-1-en-1-yl)benzamido)-3-hydroxypropanoic acid] | 0.124 nM | 58.5% | 
COC(=O)CNC(=O)c1cccc(/C=C\CCCC(=O)N(C)C)c1 [[23], (Z)-methyl 2-(3-(6-(dimethylamino)-6-oxohex-1-en-1-yl)benzamido)acetate] | 0.0225 nM | 59.2% | 
COC(=O)[C@H](Cc1ccccc1)NC(=O)c1cccc(/C=C\CCCC(=O)N(C)C)c1 [[27], (S,Z)-methyl 2-(3-(6-(dimethylamino)-6-oxohex-1-en-1-yl)benzamido)-3-phenylpropanoate] | 0.0908 nM | 55.3% | 
COC(=O)[C@H](CO)NC(=O)c1cccc(/C=C\CCCC(=O)N(C)C)c1 [[25], (S,Z)-methyl 2-(3-(6-(dimethylamino)-6-oxohex-1-en-1-yl)benzamido)-3-hydroxypropanoate] | 0.359 nM | 52.9% | 
C[C@@H](NC(=O)c1cccc(/C=C\CCCC(=O)N(C)C)c1)C(=O)O [[1], (Z)-(3-(6-(dimethylamino)-6-oxohex-1-en-1-yl)benzoyl)-D-alanine] | 0.00655 nM | 64% | EC50 (mouse vas deferens; Mus musculus, Table 1, read-out: EC50): 1.42 nM; EC50 (mouse vas deferens; Mus musculus, Table 1, read-out: pEC50 ± SEM (converted)): 1.41 nM; Emax (mouse vas deferens; Mus musculus, Table 1, inhibition of electrically-evoked twitch response, read-out: Emax (%) ± 95% confidence limits): 46%; potency (EC50) greater than VSN-16R (mouse vas deferens): 10 fold; potency (EC50) greater than VSN-16R (mouse vas deferens; listed as VSN44): ten-fold greater; potency (EC50) greater than VSN-16R (mouse vas deferens; listed as VSN-44): ≥ 10 fold
Cc1c(C(=O)c2cccc3ccccc23)c2cccc3c2n1[C@H](CN1CCOCC1)CO3 [WIN55212-2, reference compound] |  |  | pEC50 ± SEM (mouse vas deferens; Table 1): 8.41 ± 0.237; Emax (%) ± 95% confidence limits (mouse vas deferens; Table 1, inhibition of electrically-evoked twitch response): 62 (52-72) %; EC50 (mouse vas deferens; Table 1, read-out: EC50): 3.86 nM
COC(=O)[C@H](C)NC(=O)c1cccc(C#CCCCC(=O)N(C)C)c1 [[32], (S)-methyl 2-(3-(6-(dimethylamino)-6-oxohex-1-yn-1-yl)benzamido)propanoate] | 0.0131 nM | 54.6% | 
COC(=O)[C@@H](Cc1ccccc1)NC(=O)c1cccc(/C=C\CCCC(=O)N(C)C)c1 [[31], (R,Z)-methyl 2-(3-(6-(dimethylamino)-6-oxohex-1-en-1-yl)benzamido)-3-phenylpropanoate] | 0.0122 nM | 47% | 
COC(=O)[C@@H](C)NC(=O)c1cccc(C#CCCCC(=O)N2CCCC2)c1 [[20], (R)-methyl 2-(3-(6-oxo-6-(pyrrolidin-1-yl)hex-1-yn-1-yl)benzamido)propanoate] | 0.466 nM | 44.7% | 
C[C@H](CO)NC(=O)c1cccc(/C=C\CCCC(=O)N(C)C)c1 [VSN16R, reference compound] |  |  | Emax (mouse vas deferens; Mus musculus): 40.7%; EC50 (mouse vas deferens; Mus musculus, Table 1): 10.4 nM; EC50 (mouse vas deferens; Mus musculus, Table 2): 0.722 nM; Emax (mouse vas deferens; Mus musculus, read-out: Emax (%) ± 95% confidence limits): 56%; EC50 (mouse vas deferens; Mus musculus, read-out: pEC50 ± SEM, Table 1 (converted)): 10.5 nM; EC50 (mouse vas deferens; Mus musculus, wild type, FIG. 3): 10.4 nM; EC50 [1]: 12.7 nM; EC50 [2]: 17.6 nM
CC(CO)NC(=O)c1cccc(/C=C\CCCC(=O)N(C)C)c1 (stereo not shown) [VSN16] |  |  | effect on spasticity (spasticity in CREAE mice): marked effect on spasticity
COC(=O)[C@@H](Cc1ccccc1)NC(=O)c1cccc(C#CCCCC(=O)N(C)C)c1 [[30], (R)-methyl 2-(3-(6-(dimethylamino)-6-oxohex-1-yn-1-yl)benzamido)-3-phenylpropanoate] | 0.0614 nM | 46.3% | 
COC(=O)[C@H](CO)NC(=O)c1cccc(C#CCCCC(=O)N(C)C)c1 [[24], (S)-methyl 2-(3-(6-(dimethylamino)-6-oxohex-1-yn-1-yl)benzamido)-3-hydroxypropanoate] | 0.412 nM | 51.5% | 
CN(C)C(=O)CCC/C=C\c1cccc(C(=O)N[C@@H](Cc2ccccc2)C(=O)O)c1 [[17], (S,Z)-2-(3-(6-(dimethylamino)-6-oxohex-1-en-1-yl)benzamido)-3-phenylpropanoic acid] | 0.14 nM | 56.3% | 
COC(=O)CNC(=O)c1cccc(C#CCCCC(=O)N(C)C)c1 [[22], methyl 2-(3-(6-(dimethylamino)-6-oxohex-1-yn-1-yl)benzamido)acetate] | 0.112 nM | 52.9% | 
